In the test the target is WDR5 (Homo sapiens, UniProt P61964). Description: Competition-based fluorescence polarization anisotropy assay. The settings on record: binding to WDR5; displacement of FITC-labeled small molecule probe (analogous to Example J2 or HCH-25) or peptide probe FITC-AHx-SEEEIDVVSV; pH 6.0; Ki converted from IC50. The procedure, abridged: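 Competition fluorescence polarization anisotropy binding to WDR5 using a FITC-labeled peptide probe or a fluorescently labeled small-molecule probe. Buffer: 200 mM phosphate, 300 mM NaCl, 0.5 mM TCEP, 0.1% Chaps, pH 6.0. Displacement data were converted to Ki.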
A word on the Ki: it is a measure of affinity in units of concentration, obtained from inhibition or displacement. `O=C(NCCN1CCOCC1)c1cc(NS(=O)(=O)c2cc(Br)cc(Cl)c2O)cc(C2CC2)c1F` [Example J153, 5-((5-Bromo-3-chloro-2-hydroxyphenyl)sulfonamido)-3-cyclopropyl-2-fluoro-N-(2-morpholinoethyl)benzamide] returned a Ki of 0.44 µM. For `O=C(O)c1cc(C2CC2)cc(NS(=O)(=O)c2cc(Br)ccc2O)c1O` [Example J68, 3-((5-Bromo-2-hydroxyphenyl)sulfonamido)-5-cyclopropyl-2-hydroxybenzoic acid], the inhibition constant (Ki) amounted to 0.05 µM. In turn, `CCc1cc(NS(=O)(=O)c2cc(Br)cc(OC(F)(F)F)c2O)c(O)c(C(=O)O)c1` [HCH-13, 3-((5-Bromo-2-hydroxy-3-(trifluoromethoxy)phenyl)sulfonamido)-5-ethyl-2-hydroxybenzoic acid] displayed a Ki of 0.22 µM.

`O=C(NC1COC1)c1c(O)c(NS(=O)(=O)c2cc(Br)ccc2O)cc(C2CC2)c1F` [Example J128, 3-((5-Bromo-2-hydroxyphenyl)sulfonamido)-5-cyclopropyl-6-fluoro-2-hydroxy-N-(oxetan-3-yl)benzamide] showed a Ki of 0.7 µM. The value for `NC(=O)C(NC(=O)c1cc(OC(F)(F)F)cc(NS(=O)(=O)c2cc(Br)ccc2O)c1O)c1ccccn1` (stereo not drawn) [HCH-49, N-(2-Amino-2-oxo-1-(pyridin-2-yl)ethyl)-3-((5-bromo-2-hydroxyphenyl)sulfonamido)-2-hydroxy-5-(trifluoromethoxy)benzamide] was 0.32 µM. As to `CNC(=O)c1cc(C2(C#N)CCC2)cc(NS(=O)(=O)c2cc(Br)cc(Cl)c2O)c1O` [Example J211, 3-((5-Bromo-3-chloro-2-hydroxyphenyl)sulfonamido)-5-(1-cyanocyclobutyl)-2-hydroxy-N-methylbenzamide], affinity was put at a Ki of 0.05 µM. Molecule `NS(=O)(=O)c1cc(Cl)cc(NS(=O)(=O)c2cc(Br)cc(Cl)c2O)c1O` [Example S27, 5-Bromo-3-chloro-N-(5-chloro-2-hydroxy-3-sulfamoylphenyl)-2-hydroxybenzenesulfonamide] returned a Ki of 0.36 µM.

“Methyl 4-chloro-2-(N-(5-chloro-2-hydroxy-3-nitrophenyl)sulfamoyl)benzoate [NE4]” came in with a Ki of 1.81 µM. `Cc1ccsc1-c1cc(NS(=O)(=O)c2cc(Br)ccc2O)c(O)c(C(=O)O)c1` [Example J197, 3-((5-Bromo-2-hydroxyphenyl)sulfonamido)-2-hydroxy-5-(3-methylthiophen-2-yl)benzoic acid]: the Ki was 1.93 µM.

Consider `O=C(O)c1cc(Cl)cc(NS(=O)(=O)c2cc(Br)cc(Cl)c2O)c1O` [Example J4, 3-((5-Bromo-3-chloro-2-hydroxyphenyl)sulfonamido)-5-chloro-2-hydroxybenzoic acid], for which the Ki amounted to 0.06 µM.

The molecule `CNC(=O)c1cc(OC(F)(F)F)cc(NS(=O)(=O)c2cc(Br)cc3cccnc23)c1O` [Example J182, 3-((6-Bromoquinoline)-8-sulfonamido)-2-hydroxy-N-methyl-5-(trifluoromethoxy)benzamide] had a Ki of 1.06 µM. `CS(=O)(=O)c1cc(NS(=O)(=O)c2cc(Br)cc(Cl)c2O)cc(C2CC2)c1` [Example S10, 5-Bromo-3-chloro-N-(3-cyclopropyl-5-(methylsulfonyl)phenyl)-2-hydroxybenzenesulfonamide] returned a Ki of 0.17 µM.

For the molecule `CNC(=O)c1cc(C2(C#N)CCCCC2)cc(NS(=O)(=O)c2cc(Br)ccc2O)c1O` [Example J233, 3-((5-Bromo-2-hydroxyphenyl)sulfonamido)-5-(1-cyanocyclohexyl)-2-hydroxy-N-methylbenzamide], the affinity, expressed as Ki, was 0.1 µM.

For `COc1ccc(Br)cc1S(=O)(=O)Nc1cc(Cl)cc(C(N)=O)c1O` [Example J43, 3-((5-Bromo-2-methoxyphenyl)sulfonamido)-5-chloro-2-hydroxybenzamide], the affinity corresponds to a Ki of 1.15 µM. Molecule `O=C(NCC1CCOC1)c1cc(Cl)cc(NS(=O)(=O)c2cc(Br)ccc2O)c1O` (stereo not drawn) [Example J23, 3-((5-Bromo-2-hydroxyphenyl)sulfonamido)-5-chloro-2-hydroxy-N-((tetrahydrofuran-3-yl)methyl)benzamide] showed a Ki of 0.49 µM.

The record behind these values is US12398097B2, “WDR5-MYC inhibitors” (Vanderbilt University, priority 2019, dated 2025).
